Laboratory results reported in publication PMC8228600, “Design, Synthesis, In Vitro and In Vivo Evaluation of Heterobivalent SiFAlin-Modified Peptidic Radioligands Targeting Both Integrin αvβ3 and the MC1 Receptor—Suitable for the Specific Visualization of Melanomas?” (Pharmaceuticals, 2021).
Where two headings read alike, the source gives them in different places.

Key:
[1] = logD(7.4) determination (n-octanol / phosphate buffer distribution); type: physicochemical; conditions: n-octanol / 0.05 M phosphate buffer pH 7.4; mean ± SD
Protocol: Since high lipophilicity of peptidic radiotracers can lead to a high plasma protein binding, resulting in unspecific organ and high liver uptakes, thus negatively impact tumor visualization, the lipophilicity of the HBPLs was determined to get an approximate estimation of the in vivo biodistribution behavior of the radioligands. Therefore, the logD(7.4) values of the SiFAlin-modified HBPLs [^18F]1–[^18F]6 were determined via their distribution coefficient between n-octanol and phosphate buffer at pH 7.4.
The radiotracer solutions were first diluted with 0.9% NaCl solution to give a final EtOH concentration of <10%. A total of 5 MBq of the respective radiotracer in solution was added to 1.6 mL of a mixture of n-octanol and 0.05 M phosphate buffer (pH = 7.4) (v/v, 1/1), and the solution was vigorously shaken for 5 min. Subsequently, the phases were separated by centrifugation at 13.4 rpm for 2 min, and 100 μL of organic and aqueous phases were collected. The activity of each sample was measured using a gamma counter. The lipophilicity of each compound was determined in triplicate in three independent experiments.

[2] = Stability of radiotracers in human serum (radio-HPLC); type: in vitro ADME; conditions: 37 °C, 120 min, mean ± SD, read-out: Stability: intact radiotracer after 120 min of incubation in human serum
Protocol: In addition to the investigation of the radiotracers’ lipophilicity, their stability in human serum was evaluated in order to determine possible stability issues of the newly developed agents. For this purpose, the respective ^18F-labeled HBPLs were incubated in human serum at 37 °C for 120 min. The results of these experiments are summarized in Table 1, and the corresponding radio-HPLC chromatograms for [^18F]2 as representative examples for all compounds studied are depicted in Figure 3A (see Supplementary Materials, Figure S91 for the results obtained for the other radioligands). In Figure 3B, the portions of intact radiotracer over the course of the stability experiments are depicted.
The radiotracer solutions were first diluted with 0.9% NaCl solution to give a final EtOH concentration of <10%. Then, 6 × 25 μL radiotracer solution was added to 6 × 100 μL human serum and incubated at 37°C for 120 min. At defined time points (5, 15, 30, 60, 90 and 120 min), 125 μL EtOH was added to one of the mixtures and the precipitation of serum proteins was supported by ice-cooling for 2 min. After centrifugation at 13.4 rpm for 2 min, the supernatant was analyzed by analytical radio-HPLC (0–100% MeCN + 0.1% TFA in 5 min). The experiment was performed for each compound trice by three independent experiments.

[3] = Ex vivo biodistribution: uptake in B16F10 tumors and tumor-to-organ ratios; design: species or system nude mice (Balb/cAnNRj-Foxn1nu/nu); conditions: male, Balb/cAnNRj-Foxn1nu/nu (nude), mouse, iv, total radioactivity; for tissue uptake: B16F10 tumor (MC1R-positive); for tissue uptake / tissue uptake at 1.5 h: ex vivo after PET/CT scan, i.v., n = 3; for tissue to tissue ratio: ex vivo biodistribution, mean (n = 3) ± SD; for tissue uptake at 1.5 h: B16F10 tumor
Protocol: (§1) For the evaluation of the in vivo pharmacokinetics, the two most promising HBPLs—[^18F]2 with the highest affinity to both target receptors and [^18F]4 with the highest hydrophilicity and still reasonable binding affinities—were selected. For PET/CT imaging, 6-week-old male nude mice (Balb/cAnNRj-Foxn1^nu/nu) were subcutaneously injected with 5 × 10^5 B16F10 cells into the right flank and 2.0–2.5 × 10^6 U87MG cells into the left flank to generate the respective receptor-positive tumors. When the tumors reached a sufficient size for imaging, each mouse was administered 4.15 ± 2.28 MBq of [^18F]2 or 3.95 ± 2.06 MBq of [^18F]4 via the lateral tail vein under isoflurane anesthesia. To determine the receptor specificity of both peptide parts of the labeled HBPLs and their relative contribution to overall tumor uptake, blocking experiments were also performed. […] After i.v. injection of the tracers, a dynamic PET scan, followed by a CT scan, was performed. The resulting PET/CT images and time–activity curves (TACs) are depicted in Figure 6, Figure 7 and Figure 8. After completion of the diagnostic scans, the mice were sacrificed, their organs (blood, spleen, liver, kidney, pancreas, lung, heart, brain, bone, muscle, tail, tumors, stomach, colon and small intestine) were collected and measured in a γ-counter for ex vivo biodistribution (see Supplementary Materials Table S1 for detailed results).
(§2) Each male nude mouse (six weeks old) was injected subcutaneously with 5 × 10^5 B16F10 cells into the right flank and 2.0–2.5 × 10^6 U87MG cells into the left flank. The health status and tumor growth of the mice were monitored regularly until the animals could be examined after 15–21 days, depending on the tumor size. For the in vivo experiments, the ^18F-radiolabeled compound was diluted in 0.9% saline to give a final EtOH concentration of <10%. Each mouse was injected with 4.15 ± 2.28 MBq of [^18F]2 or 3.95 ± 2.06 MBq of [^18F]4 via the lateral tail vein under isoflurane anesthesia. […] Each ^18F-labeled compound was studied with or without blocking in at least three mice. Mice were measured under isoflurane anesthesia in a small PET/SPECT/CT animal imaging system. First, a dynamic PET scan was performed over 90 min and the scan was framed in 29 timeframes (10 × 1 min, 10 × 2 min, 6 × 5 min, 3 × 10 min). Images were reconstructed using 12 iterations, a maximum likelihood expectation maximization (MLEM) algorithm including corrections for scattered radiation and decay and a voxel size of 0.5 mm. All PET scans were immediately followed by CT acquisition at a voltage of 45 kV and a current of 400 μA. The images were reconstructed using the filtered back projection (FBP) algorithm with a voxel size of 250 μm. The analysis of the data, including the generation of TACs of the kidneys, liver and tumors and the MIPs, was performed via PMOD (v3.8). For ex vivo biodistribution, the mice were sacrificed directly after the PET/CT scan. Organs (blood, spleen, liver, kidneys, pancreas, lungs, heart, brain, bone, muscle, tail, tumors, stomach, colon and small intestine) were collected, weighed and their radioactivity measured in a γ-counter. The percentage injected dose per gram (% ID/g) of each tissue was calculated from the determined values, organ weights, reference values and injected activity.

[4] = system: MC1R-positive B16F10 tumors; assay: as above; design: species or system nude mice (Balb/cAnNRj-Foxn1nu/nu); conditions: NDP blocking (20 μg coinjected); ex vivo after PET/CT scan; i.v.; n = 3
Protocol: as §1, §2

[5] = NDP blocking (20 μg coinjected)
[6] = c(RGDyK) blocking (200 μg coinjected)
[7] = double blocking (NDP + c(RGDyK))
[8] = B16F10 tumor / blood, without blocking, read-out: tumor/blood ratio, B16F10
[9] = B16F10 tumor / kidneys, without blocking, read-out: tumor/kidneys ratio, B16F10
[10] = B16F10 tumor / liver, without blocking, read-out: tumor/liver ratio, B16F10
[11] = B16F10 tumor / muscle, without blocking, read-out: tumor/muscle ratio, B16F10

Row | Compound | logD [1] | remaining at 2 h [2] [%] | tissue uptake [3, 5] [%ID/g] | tissue uptake [3, 6] [%ID/g] | tissue uptake [3, 7] [%ID/g] | tissue uptake ([3]; without blocking) [%ID/g] | tissue to tissue ratio [3, 8] | tissue to tissue ratio [3, 9] | tissue to tissue ratio [3, 10] | tissue to tissue ratio [3, 11] | tissue uptake at 1.5 h ([3]; without blocking) [%ID/g] | ID/g, B16F10 tumor [4] [% ID/g]
1 | CCCC[C@H](NC(=O)CNC(=O)CNC(=O)CCOCCOCCOCCOCCOCCOCCOCCOCCOCCC(=O)NCCCN(CCCNC(=O)CCOCCOCCOCCOCCOCCOCCOCCOCCOCCC(=O)NCCCC[C@@H]1NC(=O)[C@@H](Cc2ccccc2)NC(=O)[C@H](CC(=O)O)NC(=O)CNC(=O)[C@H](CCCNC(=N)N)NC1=O)CC(=O)N[C@@H](CCCCNC(=O)CCC[N+](C)(C)Cc1ccc([Si](F)(C(C)(C)C)C(C)(C)C)cc1)C(N)=O)C(=O)N[C@H]1CC(=O)NCCCC[C@@H](C(N)=O)NC(=O)[C@H](Cc2c[nH]c3ccccc23)NC(=O)[C@H](CCCNC(=N)N)NC(=O)[C@@H](Cc2ccccc2)NC(=O)[C@H](Cc2c[nH]cn2)NC1=O [[^18F]4] | -1.39 ± 0.03 | 83.6 ± 0.8 | 1.33 ± 0.27 | 2.29 ± 0.24 | 2.49 ± 0.09 | 2.58 ± 0.86 | 4.36 ± 1.37 | 0.38 ± 0.24 | 0.36 ± 0.23 | 38.6 ± 9.24 | 2.58 ± 0.86 | 1.33 ± 0.27
2 | CCCC[C@H](NC(=O)CNC(=O)CNC(=O)CCOCCOCCOCCOCCC(=O)NCCCN(CCCNC(=O)CCOCCOCCOCCOCCC(=O)NCCCC[C@@H]1NC(=O)[C@@H](Cc2ccccc2)NC(=O)[C@H](CC(=O)O)NC(=O)CNC(=O)[C@H](CCCNC(=N)N)NC1=O)CC(=O)N[C@@H](CCCCNC(=O)CCC[N+](C)(C)Cc1ccc([Si](F)(C(C)(C)C)C(C)(C)C)cc1)C(N)=O)C(=O)N[C@H]1CC(=O)NCCCC[C@@H](C(N)=O)NC(=O)[C@H](Cc2c[nH]c3ccccc23)NC(=O)[C@H](CCCNC(=N)N)NC(=O)[C@@H](Cc2ccccc2)NC(=O)[C@H](Cc2c[nH]cn2)NC1=O [[^18F]2] | -1.19 ± 0.05 | 85.4 ± 2.8 | 1.83 ± 0.24 | 1.98 ± 0.18 | 1.14 ± 0.42 | 2.32 ± 0.49 | 2.42 ± 0.73 | 0.19 ± 0.1 | 0.16 ± 0.11 | 0.68 ± 0.41 | 2.32 ± 0.49 | 1.83 ± 0.24
